Structures can show the parent of a compound that is named as a salt.
Experiment: Solubility (Cs) of Compound (1) solid forms in FESSIF
Assay type: physicochemical
Details: FESSIF (fed state simulated intestinal fluid)
Source text: Simulated human intestinal media suitable for the invention can be found in the art, for example, those described in Jantratid, et al., “Dissolution Media Simulating Conditions in the Proximal Human Gastrointestinal Tract: An Update,” Pharmaceutical Research, 25(7), 2008. In one embodiment, a human fed state simulated intestinal fluid ([…]) is employed in the invention. A typical […] includes sodium hydroxide, citric acid, sodium chloride, sodium taurocholate, and lecithin (L-Alpha-Phosphatidyl Choline). A specific example is described in Example 9 below. […] [table]

Which “solubility of Compound (1) in FESSIF” value does the source give for `CC(C)(C)C#Cc1cc(N(C(=O)[C@H]2CC[C@H](C)CC2)[C@H]2CC[C@H](O)CC2)c(C(=O)O)s1` [Form A of Compound (1), 5-(3,3-Dimethyl-but-1-ynyl)-3-[(trans-4-hydroxy-cyclohexyl)-(trans-4-methyl-cyclohexanecarbonyl)-amino]-thiophene-2-carboxylic acid] here?
The value was 0.9 mg/mL.

Which “solubility of Compound (1) in FESSIF” value does the source give for `CC(C)(C)C#Cc1cc(N(C(=O)[C@H]2CC[C@H](C)CC2)[C@H]2CC[C@H](O)CC2)c(C(=O)O)s1` [Form M of Compound (1), 5-(3,3-Dimethyl-but-1-ynyl)-3-[(trans-4-hydroxy-cyclohexyl)-(trans-4-methyl-cyclohexanecarbonyl)-amino]-thiophene-2-carboxylic acid] here?
Its value is 0.825 mg/mL.

With `CC(C)(C)C#Cc1cc(N(C(=O)[C@H]2CC[C@H](C)CC2)[C@H]2CC[C@H](O)CC2)c(C(=O)O)s1` [tromethamine salt of Compound (1), 5-(3,3-Dimethyl-but-1-ynyl)-3-[(trans-4-hydroxy-cyclohexyl)-(trans-4-methyl-cyclohexanecarbonyl)-amino]-thiophene-2-carboxylic acid] as the molecule, how does the “solubility of Compound (1) in FESSIF” value read?
Its value is 2.6 mg/mL.

Reference: US20140235705A1, “FORMULATIONS OF THIOPHENE COMPOUNDS” (Vertex Pharmaceuticals Incorporated, priority 2011, published 2014)
